Patent US20230295200A1 (REGENTS OF THE UNIVERSITY OF MICHIGAN, priority 2022, published 2023)
Where two headings read alike, the source gives them in different places.

Target: T1, STAT6 protein (Homo sapiens, UniProt P42226)
T1 sequence (P42226 1-847): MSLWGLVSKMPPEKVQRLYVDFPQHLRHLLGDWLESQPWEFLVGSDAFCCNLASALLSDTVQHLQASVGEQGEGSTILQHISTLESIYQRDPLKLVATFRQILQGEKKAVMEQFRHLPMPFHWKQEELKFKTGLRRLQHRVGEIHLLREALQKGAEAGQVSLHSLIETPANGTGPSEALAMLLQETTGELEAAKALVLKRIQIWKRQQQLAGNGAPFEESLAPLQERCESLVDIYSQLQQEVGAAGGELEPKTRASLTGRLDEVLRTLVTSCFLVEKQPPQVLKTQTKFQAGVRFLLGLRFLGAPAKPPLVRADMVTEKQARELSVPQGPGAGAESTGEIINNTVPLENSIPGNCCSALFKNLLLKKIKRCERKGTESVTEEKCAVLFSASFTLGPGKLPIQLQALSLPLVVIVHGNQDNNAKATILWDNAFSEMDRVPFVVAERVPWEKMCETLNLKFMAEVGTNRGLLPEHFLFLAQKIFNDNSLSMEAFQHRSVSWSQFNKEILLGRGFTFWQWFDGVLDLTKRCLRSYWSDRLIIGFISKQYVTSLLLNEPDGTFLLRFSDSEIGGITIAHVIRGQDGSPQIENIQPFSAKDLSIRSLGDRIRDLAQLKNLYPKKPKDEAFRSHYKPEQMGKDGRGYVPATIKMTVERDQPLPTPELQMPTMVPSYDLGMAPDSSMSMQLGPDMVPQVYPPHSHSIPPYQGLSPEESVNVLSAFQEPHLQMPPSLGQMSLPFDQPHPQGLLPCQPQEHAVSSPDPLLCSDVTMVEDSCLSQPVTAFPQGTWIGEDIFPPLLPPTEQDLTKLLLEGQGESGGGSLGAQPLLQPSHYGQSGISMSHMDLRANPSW
Experiment: Fluorescence polarization (FP) binding assay, STAT6
Outline: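 5 nM fluorescein tracer + 200 nM STAT protein; PBS pH 7.4, 0.01% BGG, 0.01% Tween-20, 2 mM DTT; shake 15 min, 1 h RT equilibrium; FP read; nonlinear fit for inhibition constants.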

[1] = FP competition, 5 nM fluorescein-labeled tracer, 200 nM protein, PBS pH7.4, read-out: Binding STAT6

SMILES | Ki [1] | Ki
CC(C)(C)[C@H](NC(=O)c1cc2cc(C(F)(F)P(=O)(O)O)ccc2s1)C(=O)N1Cc2ccccc2C[C@H]1C(=O)N1CCCCC(c2ccccc2)C1 (stereo partly drawn) [Compound 244, ((2-(((2S)-3,3-dimethyl-1-oxo-1-((3S)-3-(3-phenylazepane-1-carbonyl)-3,4-dihydroisoquinolin-2(1H)-yl)butan-2-yl)carbamoyl)benzo[b]thiophen-5-yl)difluoromethyl)phosphonic acid] | 1000 to 10000 nM | –
O=C(N[C@@H](CCc1ccccc1)C(=O)N1CCC[C@H]1C(=O)N1CCO[C@H](c2ccccc2)C1)c1cc2cc(C(F)(F)P(=O)(O)O)ccc2s1 [Compound 288, (difluoro(2-(((S)-1-oxo-4-phenyl-1-((S)-2-((R)-2-phenylmorpholine-4-carbonyl)pyrrolidin-1-yl)butan-2-yl)carbamoyl)benzo[b]thiophen-5-yl)methyl)phosphonic acid] | 100 to 1000 nM | –
CCOP(=O)(O)C(F)(F)c1ccc2sc(C(=O)N[C@H]3CN(C(C)=O)CC[C@H]4CC[C@@H](C(=O)N5CCCC56CCCC6)N4C3=O)cc2c1 [Compound 386, ethyl hydrogen ((2-(((5S,8S,10aR)-3-acetyl-6-oxo-8-(1-azaspiro[4.4]nonane-1-carbonyl)decahydropyrrolo[1,2-a][1,5]diazocin-5-yl)carbamoyl)benzo[b]thiophen-5-yl)difluoromethyl)phosphonate] | – | > 10000 nM
CC(=O)N1CC[C@H]2CC[C@@H](C(=O)N3Cc4ccc(Cl)cc4C3)N2C(=O)[C@@H](NC(=O)c2cc3cc(C(F)(F)P(=O)(O)O)ccc3[nH]2)C1 [Compound 377, ((2-(((5,8S,10aR)-3-acetyl-8-(5-chloroisoindoline-2-carbonyl)-6-oxodecahydropyrrolo[1,2-a][1,5]diazocin-5-yl)carbamoyl)-1H-indol-5-yl)difluoromethyl)phosphonic acid] | > 10000 nM | –
CC(C)(C)[C@H](NC(=O)c1cc2cc(C(F)(F)P(=O)(O)O)ccc2s1)C(=O)N1Cc2ccccc2C[C@H]1C(=O)N1CCOC(c2ccc(F)c(Cl)c2)C1 (stereo partly drawn) [Compound 239, ((2-(((2S)-1-((3S)-3-(2-(3-chloro-4-fluorophenyl)morpholine-4-carbonyl)-3,4-dihydroisoquinolin-2(1H)-yl)-3,3-dimethyl-1-oxobutan-2-yl)carbamoyl)benzo[b]thiophen-5-yl)difluoromethyl)phosphonic acid] | 1000 to 10000 nM | –
O=C(N[C@@H](CCCc1ccccc1)C(=O)N1CCC[C@H]1C(=O)N1CCO[C@H](c2ccccc2)C1)c1cc2cc(C(F)(F)P(=O)(O)O)ccc2s1 [Compound 289, (difluoro(2-(((S)-1-oxo-5-phenyl-1-((S)-2-((R)-2-phenylmorpholine-4-carbonyl)pyrrolidin-1-yl)pentan-2-yl)carbamoyl)benzo[b]thiophen-5-yl)methyl)phosphonic acid] | < 100 nM | –
CC(=O)N1CC[C@H]2CC[C@@H](C(=O)N3CCOc4ccccc43)N2C(=O)[C@@H](NC(=O)c2cc3cc(C(F)(F)P(=O)(O)O)ccc3[nH]2)C1 [Compound 372, ((2-(((5S,8S,10aR)-3-acetyl-8-(3,4-dihydro-2H-benzo[b][1,4]oxazine-4-carbonyl)-6-oxodecahydropyrrolo[1,2-a][1,5]diazocin-5-yl)carbamoyl)-1H-indol-5-yl)difluoromethyl)phosphonic acid] | > 10000 nM | –
CC(C)(C)[C@H](NC(=O)c1cc2cc(C(F)(F)P(=O)(O)O)ccc2s1)C(=O)N1C[C@@H](Oc2ccccc2)C[C@H]1C(=O)N1CCO[C@H](c2ccccc2)C1 [Compound 301, ((2-(((S)-3,3-dimethyl-1-oxo-1-((2S,4S)-4-phenoxy-2-((R)-2-phenylmorpholine-4-carbonyl)pyrrolidin-1-yl)butan-2-yl)carbamoyl)benzo[b]thiophen-5-yl)difluoromethyl)phosphonic acid] | < 100 nM | –

More lines, main results first:

Ki [1] | SMILES | Ki
> 10000 nM | CC(=O)N1CC[C@H]2CC[C@@H](C(=O)N[C@H](C)c3ccccc3)N2C(=O)[C@@H](NC(=O)c2cc3cc(C(F)(F)P(=O)(O)O)ccc3[nH]2)C1 [Compound 338, ((2-(((5S,8S,10aR)-3-acetyl-6-oxo-8-(((R)-1-phenylethyl)carbamoyl)decahydropyrrolo[1,2-a][1,5]diazocin-5-yl)carbamoyl)-1H-indol-5-yl)difluoromethyl)phosphonic acid] | –
100 to 1000 nM | Cc1ccccc1C1CN(C(=O)[C@@H]2Cc3ccccc3CN2C(=O)[C@@H](NC(=O)c2cc3cc(C(F)(F)P(=O)(O)O)ccc3s2)C(C)(C)C)CCO1 (stereo partly drawn) [Compound 228, ((2-(((2S)-3,3-dimethyl-1-oxo-1-((3S)-3-(2-(o-tolyl)morpholine-4-carbonyl)-3,4-dihydroisoquinolin-2(1H)-yl)butan-2-yl)carbamoyl)benzo[b]thiophen-5-yl)difluoromethyl)phosphonic acid] | –
100 to 1000 nM | CN1CCC(C[C@H](NC(=O)c2cc3cc(C(F)(F)P(=O)(O)O)ccc3s2)C(=O)N2CCC[C@H]2C(=O)N2CCO[C@H](c3ccccc3)C2)CC1 [Compound 291, (difluoro(2-(((S)-3-(1-methylpiperidin-4-yl)-1-oxo-1-((S)-2-((R)-2-phenylmorpholine-4-carbonyl)pyrrolidin-1-yl)propan-2-yl)carbamoyl)benzo[b]thiophen-5-yl)methyl)phosphonic acid] | –
1000 to 10000 nM | CC(=O)N1CC[C@H]2CC[C@@H](C(=O)N3CCc4cc(I)ccc4C3)N2C(=O)[C@@H](NC(=O)c2cc3cc(C(F)(F)P(=O)(O)O)ccc3[nH]2)C1 [Compound 373, ((2-(((5S,8S,10aR)-3-acetyl-8-(6-iodo-1,2,3,4-tetrahydroisoquinoline-2-carbonyl)-6-oxodecahydropyrrolo[1,2-a][1,5]diazocin-5-yl)carbamoyl)-1H-indol-5-yl)difluoromethyl)phosphonic acid] | –
< 100 nM | CC(C)(C)[C@H](NC(=O)c1cc2cc(C(F)(F)P(=O)(O)O)ccc2s1)C(=O)N1C[C@H](OCc2ccccc2)C[C@H]1C(=O)N1CCO[C@H](c2ccccc2)C1 [Compound 300, ((2-(((S)-1-((2S,4R)-4-(benzyloxy)-2-((R)-2-phenylmorpholine-4-carbonyl)pyrrolidin-1-yl)-3,3-dimethyl-1-oxobutan-2-yl)carbamoyl)benzo[b]thiophen-5-yl)difluoromethyl)phosphonic acid] | –
> 10000 nM | CC(=O)N1CC[C@H]2CC[C@@H](C(=O)N(C)c3ccccc3)N2C(=O)[C@@H](NC(=O)c2cc3cc(C(F)(F)P(=O)(O)O)ccc3[nH]2)C1 [Compound 360, ((2-(((5S,8S,10aR)-3-acetyl-8-(methyl(phenyl)carbamoyl)-6-oxodecahydropyrrolo[1,2-a][1,5]diazocin-5-yl)carbamoyl)-1H-indol-5-yl)difluoromethyl)phosphonic acid] | –
100 to 1000 nM | CCOC(=O)CO[C@H]1C[C@@H](C(=O)N(CCC(=O)NC)c2ccc(Br)cc2)N(C(=O)[C@@H](NC(=O)c2cc3cc(C(F)(F)P(=O)(O)O)ccc3s2)C(C)(C)C)C1 [Compound 56, ((2-(((S)-1-((2S,4S)-2-((4-bromophenyl)(3-(methylamino)-3-oxopropyl)carbamoyl)-4-(2-ethoxy-2-oxoethoxy)pyrrolidin-1-yl)-3,3-dimethyl-1-oxobutan-2-yl)carbamoyl)benzo[b]thiophen-5-yl)difluoromethyl)phosphonic acid] | –
